Results as given in patent US10703733B2, “MCL-1 inhibitors” (Gilead Sciences, Inc., priority 2018, dated 2020).
Read-outs that look alike come from different tables or passages of the source.

Assays:
[1] = molecular target: MCL-1/Bim interaction (recombinant human MCL-1 protein, residues 171-327; biotinylated human Bim peptide, residues 51-76) (Homo sapiens (Human), UniProt Q07820); assay: MCL-1/Bim Binding AlphaLISA Assay; conditions: 0.0625 nM 6xHis-Mcl-1 (171-327), 0.0625 nM biotinylated-Bim peptide
In short: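 Compounds first sat 1 h with MCL-1 (171-327, 0.0625 nM), followed by 2 h with biotin-Bim 51-76 (0.0625 nM), then sequential 1 h anti-His acceptor and streptavidin donor bead steps; buffer Hepes pH 7.5 with NaCl, Brij 35, DTT, BSA. AlphaScreen signal converted to % inhibition using DMSO (negative) and protein/peptide-free (positive) controls.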

SKBR3 cells = assay: SKBR3 Cell Viability Assay (CellTiter Glo); assay type: cell-based; conditions: CellTiter Glo luminescence, read-out: MCL-1 CV SKBR3 EC50
Procedure: SKBR3 Cell Viability Assay Materials
SKBR3 Cells (ATCC HTB-30) were obtained from ATCC (Manassas, Va.) and cultured in McCoy 5A's medium (ATCC 30-2007)+10% fetal bovine serum (SH30071.03, HyClone, Pittsburgh, Pa.) plus 1× Penicillin-Streptomycin L-glutamine (Corning 30-009-C1, Corning, N.Y.)).
The cell viability assay was conducted in a 384-well tissue culture plate (Grenier 781086, Monroe, N.C.) in a total volume of 70 μL. Test compounds were prepared in 1,000×, serially diluted, and pre-spotted into 384-well tissue culture plate by Echo 555 Liquid Handler (Labcyte Inc., San Jose, Calif.). Seventy μl of 6,000 SKBR3 cells were dispensed into each well of the plate and incubated at 37° C. with 5% CO2 for 72 hours. At the end of incubation, 2× CellTiter Glo (CTG) reagents (1 part buffer with 2 parts substrate) (Promega, Madison, Wis.) were prepared, and the plate and the reagent were equilibrated to room temperature for 30 minutes. CTG reagent was added to each plate by Biomek FX at 20 μL/well with 5 times pipetting and mixing to induce cell lysis. Luminescence was read by Envision multimode reader (PerkinElmer). […] Percent inhibition was calculated as followed: % Inhibition=100%*(Well−Neg)/(Pos−Neg) Neg, negative control, DMSO Pos, positive control, 10 μM Puromycin

Chain of MCL-1/Bim interaction (recombinant human MCL-1 protein, residues 171-327; biotinylated human Bim peptide, residues 51-76) (Q07820 171-327): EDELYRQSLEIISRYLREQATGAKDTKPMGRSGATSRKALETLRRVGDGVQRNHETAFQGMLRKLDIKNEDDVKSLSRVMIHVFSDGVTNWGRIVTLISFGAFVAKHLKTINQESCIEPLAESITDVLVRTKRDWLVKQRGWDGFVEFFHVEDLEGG

| Structure (SMILES) | IC50 [1] | EC50 (SKBR3 cells; 72 hours) | EC50 (SKBR3 cells; Homo sapiens, SK-BR-3, 72 h) |
| --- | --- | --- | --- |
| CO[C@H]1/C=C/C[C@H](C)C[S@@](=O)(NC(=O)NC2CC2CC(F)F)=NC(=O)c2ccc3c(c2)N(C[C@@H]2CC[C@H]21)C[C@@]1(CCCc2cc(Cl)ccc21)CO3 (single isomer, unassigned) [Example 282] | 0.086 nM | 28.7 nM | – |
| CO[C@H]1/C=C/C[C@H](C)C[S@@](=O)(NC(=O)N[C@@H]2C[C@]2(C)OC)=NC(=O)c2ccc3c(c2)N(C[C@@H]2CC[C@H]21)C[C@@]1(CCCc2cc(Cl)ccc21)CO3 (single isomer, unassigned) [Example 312] | 0.039 nM | – | 43.5 nM |
| CO[C@H]1/C=C/C[C@H](C)C[S@@](=O)(NC(=O)N[C@H]2C[C@@]2(C)OC)=NC(=O)c2ccc3c(c2)N(C[C@@H]2CC[C@H]21)C[C@@]1(CCCc2cc(Cl)ccc21)CO3 (single isomer, unassigned) [Example 313] | 0.064 nM | – | 94.5 nM |
| CO[C@H]1/C=C/C[C@H](C)C[S@@](=O)(NC(=O)N[C@H]2CC23CCOC3)=NC(=O)c2ccc3c(c2)N(C[C@@H]2CC[C@H]21)C[C@@]1(CCCc2cc(Cl)ccc21)CO3 (single isomer, unassigned) [Example 341] | 0.032 nM | – | 39.4 nM |
| CO[C@H]1/C=C/C[C@H](C)C[S@@](=O)(NC(=O)N[C@@H]2CC23CCOC3)=NC(=O)c2ccc3c(c2)N(C[C@@H]2CC[C@H]21)C[C@@]1(CCCc2cc(Cl)ccc21)CO3 (single isomer, unassigned) [Example 342] | 0.029 nM | – | 33.6 nM |
| CO[C@H]1/C=C/C[C@H](C)C[S@@](=O)(NC(=O)N[C@H]2C[C@H]2CO)=NC(=O)c2ccc3c(c2)N(C[C@@H]2CC[C@H]21)C[C@@]1(CCCc2cc(Cl)ccc21)CO3 (single isomer, unassigned) [Example 365] | 0.04 nM | – | 146 nM |
| COc1nn(C)cc1C(=O)NS1(=O)=NC(=O)c2ccc3c(c2)N(C[C@@H]2CC[C@H]2[C@@H](OC)/C=C/[C@H](OC(=O)CCc2ccccc2)[C@H](C)C1)C[C@@]1(CCCc2cc(Cl)ccc21)CO3 (single isomer, unassigned) [Example 378] | 1.15 nM | 1180 nM | – |
| CCC(=O)N[S@@]1(=O)=NC(=O)c2ccc3c(c2)N(C[C@@H]2CC[C@H]2[C@@H](OC)/C=C/C[C@H](C)[C@H]1C)C[C@@]1(CCCc2cc(Cl)ccc21)CO3 [Example 2] | 1.5 nM | – | 792 nM |
| CO[C@H]1/C=C/CCC[S@](N)(=O)=NC(=O)c2ccc3c(c2)N(C[C@@H]2CC[C@H]21)C[C@@]1(CCCc2cc(Cl)ccc21)CO3 [Example 6] | 27.3 nM | 8730 nM | – |
| CCC(=O)N[S@@]1(=O)=NC(=O)c2ccc3c(c2)N(C[C@@H]2CC[C@H]2[C@@H](OC)CCCCC1)C[C@@]1(CCCc2cc(Cl)ccc21)CO3 [Example 12] | 1.7 nM | 4460 nM | – |
| CCC(=O)N[S@]1(=O)=NC(=O)c2ccc3c(c2)N(C[C@@H]2CC[C@H]2[C@@H](OC)CCCCC1)C[C@@]1(CCCc2cc(Cl)ccc21)CO3 [Example 17] | 11.3 nM | 10000 nM | – |
| CO[C@H]1/C=C/CCC[S@@](=O)(NC(=O)NC(C)C)=NC(=O)c2ccc3c(c2)N(C[C@@H]2CC[C@H]21)C[C@@]1(CCCc2cc(Cl)ccc21)CO3 [Example 19] | 1.1 nM | – | 1080 nM |
| CO[C@H]1/C=C/CCC[S@@](=O)(NC(=O)Cc2cnccn2)=NC(=O)c2ccc3c(c2)N(C[C@@H]2CC[C@H]21)C[C@@]1(CCCc2cc(Cl)ccc21)CO3 [Example 20] | 0.5 nM | – | 2060 nM |
| CO[C@H]1/C=C/CCC[S@@](=O)(NC(=O)CC2CC2)=NC(=O)c2ccc3c(c2)N(C[C@@H]2CC[C@H]21)C[C@@]1(CCCc2cc(Cl)ccc21)CO3 [Example 21] | 0.8 nM | – | 1300 nM |
| CO[C@H]1/C=C/CCC[S@@](=O)(NC(=O)CC(F)(F)F)=NC(=O)c2ccc3c(c2)N(C[C@@H]2CC[C@H]21)C[C@@]1(CCCc2cc(Cl)ccc21)CO3 [Example 23] | 0.8 nM | – | 1450 nM |
| CO[C@H]1/C=C/CCC[S@@](=O)(NC(=O)C2COC2)=NC(=O)c2ccc3c(c2)N(C[C@@H]2CC[C@H]21)C[C@@]1(CCCc2cc(Cl)ccc21)CO3 [Example 24] | 0.2 nM | – | 891 nM |

| Structure (SMILES) | IC50 [1] | EC50 (SKBR3 cells; 72 hours) | EC50 (SKBR3 cells; Homo sapiens, SK-BR-3, 72 h) |
| --- | --- | --- | --- |
| CO[C@H]1/C=C/CCC[S@@](=O)(NC(C)=O)=NC(=O)c2ccc3c(c2)N(C[C@@H]2CC[C@H]21)C[C@@]1(CCCc2cc(Cl)ccc21)CO3 [Example 25] | 0.6 nM | – | 2010 nM |
| CO[C@H]1/C=C/CCC[S@@](=O)(NC(=O)CC(C)C)=NC(=O)c2ccc3c(c2)N(C[C@@H]2CC[C@H]21)C[C@@]1(CCCc2cc(Cl)ccc21)CO3 [Example 26] | 1.8 nM | – | 1690 nM |
| CO[C@H]1/C=C/CCC[S@@](=O)(NC(=O)C2CC2)=NC(=O)c2ccc3c(c2)N(C[C@@H]2CC[C@H]21)C[C@@]1(CCCc2cc(Cl)ccc21)CO3 [Example 27] | 1.6 nM | – | 2080 nM |
| CO[C@H]1/C=C/CCC[S@@](=O)(NC(=O)CCS(C)(=O)=O)=NC(=O)c2ccc3c(c2)N(C[C@@H]2CC[C@H]21)C[C@@]1(CCCc2cc(Cl)ccc21)CO3 [Example 28] | 0.2 nM | – | 8410 nM |
| CO[C@H]1/C=C/CCC[S@@](=O)(NC(=O)Cc2ccnn2C)=NC(=O)c2ccc3c(c2)N(C[C@@H]2CC[C@H]21)C[C@@]1(CCCc2cc(Cl)ccc21)CO3 [Example 29] | 0.6 nM | – | 1840 nM |
| CO[C@H]1/C=C/CCC[S@@](=O)(NC(=O)Cc2ncccn2)=NC(=O)c2ccc3c(c2)N(C[C@@H]2CC[C@H]21)C[C@@]1(CCCc2cc(Cl)ccc21)CO3 [Example 30] | 0.6 nM | – | 1840 nM |
| CO[C@H]1/C=C/CCC[S@@](=O)(NC(=O)C2CCC2)=NC(=O)c2ccc3c(c2)N(C[C@@H]2CC[C@H]21)C[C@@]1(CCCc2cc(Cl)ccc21)CO3 [Example 31] | 3.1 nM | – | 2590 nM |
| CO[C@H]1/C=C/CCC[S@@](=O)(NC(=O)NC2(C(F)(F)F)CC2)=NC(=O)c2ccc3c(c2)N(C[C@@H]2CC[C@H]21)C[C@@]1(CCCc2cc(Cl)ccc21)CO3 [Example 32] | 1.4 nM | – | 1480 nM |
| CC#CC(=O)N[S@@]1(=O)=NC(=O)c2ccc3c(c2)N(C[C@@H]2CC[C@H]2[C@@H](OC)/C=C/CCC1)C[C@@]1(CCCc2cc(Cl)ccc21)CO3 [Example 33] | 2.9 nM | – | 7440 nM |
| CO[C@H]1/C=C/CCC[S@@](=O)(NC(=O)NC(C)(C)C(F)(F)F)=NC(=O)c2ccc3c(c2)N(C[C@@H]2CC[C@H]21)C[C@@]1(CCCc2cc(Cl)ccc21)CO3 [Example 34] | 2 nM | – | 3350 nM |
| CO[C@H]1/C=C/CCC[S@@](=O)(NC(=O)CCc2cnccn2)=NC(=O)c2ccc3c(c2)N(C[C@@H]2CC[C@H]21)C[C@@]1(CCCc2cc(Cl)ccc21)CO3 [Example 35] | 0.2 nM | – | 266 nM |
| CO[C@H]1/C=C/CCC[S@@](=O)(NC(=O)C#CC(C)(C)C)=NC(=O)c2ccc3c(c2)N(C[C@@H]2CC[C@H]21)C[C@@]1(CCCc2cc(Cl)ccc21)CO3 [Example 36] | 8.1 nM | – | 10000 nM |
| CO[C@H]1/C=C/CCC[S@@](=O)(NC(=O)CCc2ccncn2)=NC(=O)c2ccc3c(c2)N(C[C@@H]2CC[C@H]21)C[C@@]1(CCCc2cc(Cl)ccc21)CO3 [Example 38] | 0.2 nM | – | 280 nM |
| CO[C@H]1/C=C/CCC[S@@](=O)(NC(=O)CCn2cccn2)=NC(=O)c2ccc3c(c2)N(C[C@@H]2CC[C@H]21)C[C@@]1(CCCc2cc(Cl)ccc21)CO3 [Example 39] | 0.1 nM | – | 262 nM |
| CO[C@H]1/C=C/CCC[S@@](=O)(NC(=O)CCc2cccnc2)=NC(=O)c2ccc3c(c2)N(C[C@@H]2CC[C@H]21)C[C@@]1(CCCc2cc(Cl)ccc21)CO3 [Example 40] | 0.1 nM | – | 328 nM |
| CO[C@H]1/C=C/CCC[S@@](=O)(NC(=O)CCc2ccncc2)=NC(=O)c2ccc3c(c2)N(C[C@@H]2CC[C@H]21)C[C@@]1(CCCc2cc(Cl)ccc21)CO3 [Example 41] | 0.1 nM | – | 256 nM |
